{
  "source": "PubChem BioAssay AID256",
  "about": "(DTP/NCI, 2004)",
  "system": "CD2F1 mice, L1210 leukemia ip, survival T/C",
  "experiment": "NCI In Vivo Anticancer Drug Screen. Data for tumor model L1210 Leukemia (intraperitoneal) in CD2F1 (CDF1) mice",
  "details": "higher = longer survival",
  "method_in_brief": "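Mice carrying a transplanted tumor received test compound or vehicle alone. The value is the measurement in the treated group divided by that in the vehicle-treated control group.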",
  "key": {"[1]": {"details": "endpoint: mean survival time, dose: 100.0 mg/kg/injection, schedule: Q04DX002 (ip), vehicle: saline with Tween-80"}, "[2]": {"details": "endpoint: mean survival time, dose: 200.0 mg/kg/injection, schedule: Q04DX002 (ip), vehicle: saline with Tween-80"}},
  "note": "Toxic doses and inconclusive results are not listed.",
  "data": [
    {"molecule": "C=C1CCCCC1C(C(=O)O)(c1ccccc1)c1ccccc1", "note": "(centres undefined)", "values": [
      {"measurement": "T/C", "setting": "endpoint: mean survival time, dose: 100.0 mg/kg/injection, schedule: Q04DX003 (ip), vehicle: saline with Tween-80", "value": "102 % of control"},
      {"measurement": "T/C", "setting": "endpoint: mean survival time, dose: 200.0 mg/kg/injection, schedule: Q04DX003 (ip), vehicle: saline with Tween-80", "value": "102 % of control"},
      {"measurement": "T/C", "setting": "endpoint: mean survival time, dose: 400.0 mg/kg/injection, schedule: Q04DX003 (ip), vehicle: saline with Tween-80", "value": "100 % of control"}
    ]},
    {"molecule": "CS(=O)(=O)/C=C(\\I)c1ccccc1", "values": [
      {"measurement": "T/C", "setting": "endpoint: mean survival time, dose: 100.0 mg/kg/injection, schedule: Q01DX009 (ip), vehicle: saline", "value": "98 % of control"},
      {"measurement": "T/C", "setting": "endpoint: mean survival time, dose: 100.0 mg/kg/injection, schedule: Q04DX003 (ip), vehicle: saline", "value": "104 % of control"},
      {"measurement": "T/C", "setting": "endpoint: mean survival time, dose: 200.0 mg/kg/injection, schedule: Q01DX009 (ip), vehicle: saline", "value": "93 % of control"},
      {"measurement": "T/C", "setting": "endpoint: mean survival time, dose: 200.0 mg/kg/injection, schedule: Q04DX003 (ip), vehicle: saline", "value": "106 % of control"},
      {"measurement": "T/C", "setting": "endpoint: mean survival time, dose: 400.0 mg/kg/injection, schedule: Q01DX009 (ip), vehicle: saline", "value": "95 % of control"},
      {"measurement": "T/C", "setting": "endpoint: mean survival time, dose: 400.0 mg/kg/injection, schedule: Q04DX003 (ip), vehicle: saline", "value": "98 % of control"}
    ]},
    {"molecule": "CCc1c2c(nc3ccc(OC(=O)N4CCC(N5CCCCC5)CC4)cc13)-c1cc3c(c(=O)n1C2)COC(=O)[C@]3(O)CC", "values": [
      {"measurement": "T/C", "setting": "endpoint: median survival time, dose: 26.4 mg/kg/injection, schedule: Q04HX004 (iv), vehicle: water", "value": "177 % of control"},
      {"measurement": "T/C", "setting": "endpoint: median survival time, dose: 39.6 mg/kg/injection, schedule: Q04DX002 (ip), vehicle: water", "value": "206 % of control"},
      {"measurement": "T/C", "setting": "endpoint: median survival time, dose: 39.6 mg/kg/injection, schedule: Q04HX004 (iv), vehicle: water", "value": "192 % of control"},
      {"measurement": "T/C", "setting": "endpoint: median survival time, dose: 59.3 mg/kg/injection, schedule: Q04DX002 (ip), vehicle: water", "value": "231 % of control"},
      {"measurement": "T/C", "setting": "endpoint: median survival time, dose: 59.3 mg/kg/injection, schedule: Q04HX004 (iv), vehicle: water", "value": "193 % of control"},
      {"measurement": "T/C", "setting": "endpoint: median survival time, dose: 89.0 mg/kg/injection, schedule: Q04DX002 (ip), vehicle: water", "value": "500 % of control"},
      {"measurement": "T/C", "setting": "endpoint: median survival time, dose: 89.0 mg/kg/injection, schedule: Q04HX004 (iv), vehicle: water", "value": "209 % of control"}
    ]},
    {"molecule": "CCCCOC(=O)c1c(C(=O)OCCCC)c(-c2ccccc2)c2c(c1-c1ccccc1)-c1cccc3cccc-2c13", "values": [
      {"measurement": "T/C", "setting": "[1]", "value": "97 % of control"},
      {"measurement": "T/C", "setting": "[2]", "value": "86 % of control"},
      {"measurement": "T/C", "setting": "endpoint: mean survival time, dose: 400.0 mg/kg/injection, schedule: Q04DX002 (ip), vehicle: saline with Tween-80", "value": "90 % of control"}
    ]},
    {"molecule": "O=C1c2ccccc2CC12OC2c1ccccc1", "note": "(centres undefined)", "values": [
      {"measurement": "T/C", "setting": "endpoint: mean survival time, dose: 25.0 mg/kg/injection, schedule: Q01DX009 (ip), vehicle: Klucel (hydroxypropylcellulose) (HPC)", "value": "103 % of control"},
      {"measurement": "T/C", "setting": "endpoint: mean survival time, dose: 50.0 mg/kg/injection, schedule: Q01DX009 (ip), vehicle: Klucel (hydroxypropylcellulose) (HPC)", "value": "110 % of control"},
      {"measurement": "T/C", "setting": "endpoint: mean survival time, dose: 100.0 mg/kg/injection, schedule: Q01DX009 (ip), vehicle: Klucel (hydroxypropylcellulose) (HPC)", "value": "89 % of control"},
      {"measurement": "T/C", "setting": "endpoint: mean survival time, dose: 200.0 mg/kg/injection, schedule: Q01DX009 (ip), vehicle: Klucel (hydroxypropylcellulose) (HPC)", "value": "98 % of control"},
      {"measurement": "T/C", "setting": "endpoint: mean survival time, dose: 400.0 mg/kg/injection, schedule: Q01DX009 (ip), vehicle: Klucel (hydroxypropylcellulose) (HPC)", "value": "98 % of control"}
    ]},
    {"molecule": "CC(=O)c1ccc[n+](CCc2c[nH]c3ccccc23)c1", "values": [
      {"measurement": "T/C", "setting": "endpoint: mean survival time, dose: 12.5 mg/kg/injection, schedule: Q01DX009 (ip), vehicle: saline sonified", "value": "103 % of control"},
      {"measurement": "T/C", "setting": "endpoint: mean survival time, dose: 12.5 mg/kg/injection, schedule: Q04DX003 (ip), vehicle: saline with Tween-80", "value": "98 % of control"},
      {"measurement": "T/C", "setting": "endpoint: mean survival time, dose: 25.0 mg/kg/injection, schedule: Q01DX009 (ip), vehicle: saline sonified", "value": "100 % of control"},
      {"measurement": "T/C", "setting": "endpoint: mean survival time, dose: 25.0 mg/kg/injection, schedule: Q04DX003 (ip), vehicle: saline with Tween-80", "value": "104 % of control"},
      {"measurement": "T/C", "setting": "endpoint: mean survival time, dose: 50.0 mg/kg/injection, schedule: Q01DX009 (ip), vehicle: saline sonified", "value": "103 % of control"},
      {"measurement": "T/C", "setting": "endpoint: mean survival time, dose: 50.0 mg/kg/injection, schedule: Q04DX003 (ip), vehicle: saline with Tween-80", "value": "103 % of control"}
    ]},
    {"molecule": "Cc1c(Cl)c(Cl)c(Cl)c(I)c1Cl", "values": [
      {"measurement": "T/C", "setting": "endpoint: mean survival time, dose: 50.0 mg/kg/injection, schedule: Q04DX002 (ip), vehicle: saline with Tween-80", "value": "96 % of control"},
      {"measurement": "T/C", "setting": "endpoint: mean survival time, dose: 100.0 mg/kg/injection, schedule: Q01DX001 (ip), vehicle: saline with Tween-80", "value": "97 % of control"},
      {"measurement": "T/C", "setting": "[1]", "value": "93 % of control"},
      {"measurement": "T/C", "setting": "endpoint: mean survival time, dose: 200.0 mg/kg/injection, schedule: Q01DX001 (ip), vehicle: saline with Tween-80", "value": "102 % of control"},
      {"measurement": "T/C", "setting": "[2]", "value": "93 % of control"},
      {"measurement": "T/C", "setting": "endpoint: mean survival time, dose: 400.0 mg/kg/injection, schedule: Q01DX001 (ip), vehicle: saline with Tween-80", "value": "97 % of control"}
    ]},
    {"molecule": "COCS(=O)[O-].[C-]#[O+].[C-]#[O+].[Fe+6].[c-]1[c-][c-][cH-][c-]1", "values": [
      {"measurement": "T/C", "setting": "endpoint: mean survival time, dose: 12.5 mg/kg/injection, schedule: Q04DX002 (ip), vehicle: saline", "value": "101 % of control"},
      {"measurement": "T/C", "setting": "endpoint: mean survival time, dose: 25.0 mg/kg/injection, schedule: Q04DX002 (ip), vehicle: saline", "value": "93 % of control"},
      {"measurement": "T/C", "setting": "endpoint: mean survival time, dose: 50.0 mg/kg/injection, schedule: Q04DX002 (ip), vehicle: saline", "value": "96 % of control"}
    ]},
    {"molecule": "COc1cc(C[C@@H]2COC(=O)[C@]2(O)Cc2ccc(O)c(OC)c2)ccc1O", "values": [
      {"measurement": "T/C", "setting": "endpoint: mean survival time, dose: 1.0 mg/kg/injection, schedule: Q01DX009 (ip), vehicle: saline + alcohol", "value": "106 % of control"},
      {"measurement": "T/C", "setting": "endpoint: mean survival time, dose: 2.0 mg/kg/injection, schedule: Q01DX009 (ip), vehicle: saline + alcohol", "value": "104 % of control"},
      {"measurement": "T/C", "setting": "endpoint: mean survival time, dose: 4.0 mg/kg/injection, schedule: Q01DX009 (ip), vehicle: saline + alcohol", "value": "106 % of control"},
      {"measurement": "T/C", "setting": "endpoint: mean survival time, dose: 8.0 mg/kg/injection, schedule: Q01DX009 (ip), vehicle: saline + alcohol", "value": "103 % of control"},
      {"measurement": "T/C", "setting": "endpoint: mean survival time, dose: 16.0 mg/kg/injection, schedule: Q01DX009 (ip), vehicle: saline + alcohol", "value": "101 % of control"}
    ]}
  ]
}
